We go through five compounds from US10100041B2, “Pyrazolyl substituted tetrahydropyranylsulfones” (GRÜNENTHAL GMBH, priority 2015, dated 2018).

Each structure is given as a SMILES string.

The target of this test is T1, Human CaV2.2 channels (Homo sapiens, UniProt Q00975).
T1 construct: expressed in transfected cells
The test can be described thus: Fluorescence assay for CaV2.2 channels using potassium depolarization to induce channel opening (FLIPR, Fluo 4). Format: cell-based. Particulars: 30 mM KCl (alternative assay buffer, inactivated channel state), HEK293 cells; for inhibition at 3 µM: HEK293, 3 μM test compound, read-out: Activity Category: %-Inhib (CaV2.2) @3 μM @30 mM KCl. From the text: In the process, the Ca^2+ influx is quantified in the FLIPR assay with the aid of a Ca^2+-sensitive dye (type Fluo-4, Molecular Probes Europe BV, Leiden, the Netherlands) in a fluorescent imaging plate reader (FLIPR 3, Molecular Devices, Sunnyvale, USA), as described hereinafter.
2.1 Fluorescence Assay for CaV2.2 Channels Using Potassium Depolarization to Induce Channel Opening
Human CaV2.2 channels were stably expressed in HEK293 cells together with alpha2-delta and beta subunits of voltage gated calcium channels. In addition, an inwardly rectifying potassium channel (Kir2.3) was stably expressed in these cells to augment control of the cell membrane potential by the concentration of extracellular potassium ions. Raise of the extracellular potassium concentration leads to depolarization of the membrane potential and thus regulates the voltage dependent state of CaV2.2 channels. For preparation, cells were seeded in black poly-D-lysine coated 96-well plates (Becton Dickinson, Biocoat 4640) in 100 μL medium [500 mL DMEM/F-12 plus Glutamax (Invitrogen 31331-093) plus 5.5 mL MEM NEAA 100× (Invitrogen 11140-035) plus 50 mL FBS decomplemented (Invitrogen 10270-106) plus 200 μg/mL Geneticin (Invitrogen 10131-027) plus 50 μg/mL Hygromycin B (Invitrogen 10687-010) plus 2 μg/mL Blasticidin (anti-b15b Invivo-Gen) plus 0.2 μg/mL Puromycin (A 11138-03)] at a cell density of 30.000 cells per well. Plates were incubated at 37° C. (5% CO2) for 20 to 23 h. On the day of experiment medium was discarded and cells were loaded with Fluo 4 by addition of 100 μL of basic assay buffer (10 mM HEPES, 1 mM KCl, 149 mM NaCl, 0.8 mM CaCl2, 1.7 mM MgCl2, 10 mM Glucose, 0.1% BSA. pH 7.4) containing 2 μM Fluo 4 (Molecular Probes; F-14201), 0.01% pluronic acid (Molecular Probes; P-6866) and 2.5 mM probenecid (Molecular Probes; P36400). Cells were incubated in the dark at 25° C. for 60 min. Then dye containing buffer was discarded and […] basic (1 mM KCl) or alternative (30 mM KCl) assay buffer was added. The alternative assay buffer contained altered concentrations of KCl (30 mM) and NaCl (120 mM) and was used in order to promote the inactivated channel state. After that 25 μL of basic or alternative assay buffer with or without test compound were added and cells were incubated again in the dark at 25° C. for 15 min. Fluorescence intensity was measured on a FLIPR 3 instrument (Molecular Devices Corp., Sunnyvale, Calif.) with excitation at 480 nm and emission at 535 nm. After continuously reading fluorescence for 30 sec, 50 μL of basic assay buffer containing 210 mM KCl (NaCl omitted) were added for depolarization. Peak fluorescent signal intensity was determined and the amplitude of the peak signal, normalized to base line, was used to measure channel inhibition by test compounds.

T1 sequence (Q00975 whole entry): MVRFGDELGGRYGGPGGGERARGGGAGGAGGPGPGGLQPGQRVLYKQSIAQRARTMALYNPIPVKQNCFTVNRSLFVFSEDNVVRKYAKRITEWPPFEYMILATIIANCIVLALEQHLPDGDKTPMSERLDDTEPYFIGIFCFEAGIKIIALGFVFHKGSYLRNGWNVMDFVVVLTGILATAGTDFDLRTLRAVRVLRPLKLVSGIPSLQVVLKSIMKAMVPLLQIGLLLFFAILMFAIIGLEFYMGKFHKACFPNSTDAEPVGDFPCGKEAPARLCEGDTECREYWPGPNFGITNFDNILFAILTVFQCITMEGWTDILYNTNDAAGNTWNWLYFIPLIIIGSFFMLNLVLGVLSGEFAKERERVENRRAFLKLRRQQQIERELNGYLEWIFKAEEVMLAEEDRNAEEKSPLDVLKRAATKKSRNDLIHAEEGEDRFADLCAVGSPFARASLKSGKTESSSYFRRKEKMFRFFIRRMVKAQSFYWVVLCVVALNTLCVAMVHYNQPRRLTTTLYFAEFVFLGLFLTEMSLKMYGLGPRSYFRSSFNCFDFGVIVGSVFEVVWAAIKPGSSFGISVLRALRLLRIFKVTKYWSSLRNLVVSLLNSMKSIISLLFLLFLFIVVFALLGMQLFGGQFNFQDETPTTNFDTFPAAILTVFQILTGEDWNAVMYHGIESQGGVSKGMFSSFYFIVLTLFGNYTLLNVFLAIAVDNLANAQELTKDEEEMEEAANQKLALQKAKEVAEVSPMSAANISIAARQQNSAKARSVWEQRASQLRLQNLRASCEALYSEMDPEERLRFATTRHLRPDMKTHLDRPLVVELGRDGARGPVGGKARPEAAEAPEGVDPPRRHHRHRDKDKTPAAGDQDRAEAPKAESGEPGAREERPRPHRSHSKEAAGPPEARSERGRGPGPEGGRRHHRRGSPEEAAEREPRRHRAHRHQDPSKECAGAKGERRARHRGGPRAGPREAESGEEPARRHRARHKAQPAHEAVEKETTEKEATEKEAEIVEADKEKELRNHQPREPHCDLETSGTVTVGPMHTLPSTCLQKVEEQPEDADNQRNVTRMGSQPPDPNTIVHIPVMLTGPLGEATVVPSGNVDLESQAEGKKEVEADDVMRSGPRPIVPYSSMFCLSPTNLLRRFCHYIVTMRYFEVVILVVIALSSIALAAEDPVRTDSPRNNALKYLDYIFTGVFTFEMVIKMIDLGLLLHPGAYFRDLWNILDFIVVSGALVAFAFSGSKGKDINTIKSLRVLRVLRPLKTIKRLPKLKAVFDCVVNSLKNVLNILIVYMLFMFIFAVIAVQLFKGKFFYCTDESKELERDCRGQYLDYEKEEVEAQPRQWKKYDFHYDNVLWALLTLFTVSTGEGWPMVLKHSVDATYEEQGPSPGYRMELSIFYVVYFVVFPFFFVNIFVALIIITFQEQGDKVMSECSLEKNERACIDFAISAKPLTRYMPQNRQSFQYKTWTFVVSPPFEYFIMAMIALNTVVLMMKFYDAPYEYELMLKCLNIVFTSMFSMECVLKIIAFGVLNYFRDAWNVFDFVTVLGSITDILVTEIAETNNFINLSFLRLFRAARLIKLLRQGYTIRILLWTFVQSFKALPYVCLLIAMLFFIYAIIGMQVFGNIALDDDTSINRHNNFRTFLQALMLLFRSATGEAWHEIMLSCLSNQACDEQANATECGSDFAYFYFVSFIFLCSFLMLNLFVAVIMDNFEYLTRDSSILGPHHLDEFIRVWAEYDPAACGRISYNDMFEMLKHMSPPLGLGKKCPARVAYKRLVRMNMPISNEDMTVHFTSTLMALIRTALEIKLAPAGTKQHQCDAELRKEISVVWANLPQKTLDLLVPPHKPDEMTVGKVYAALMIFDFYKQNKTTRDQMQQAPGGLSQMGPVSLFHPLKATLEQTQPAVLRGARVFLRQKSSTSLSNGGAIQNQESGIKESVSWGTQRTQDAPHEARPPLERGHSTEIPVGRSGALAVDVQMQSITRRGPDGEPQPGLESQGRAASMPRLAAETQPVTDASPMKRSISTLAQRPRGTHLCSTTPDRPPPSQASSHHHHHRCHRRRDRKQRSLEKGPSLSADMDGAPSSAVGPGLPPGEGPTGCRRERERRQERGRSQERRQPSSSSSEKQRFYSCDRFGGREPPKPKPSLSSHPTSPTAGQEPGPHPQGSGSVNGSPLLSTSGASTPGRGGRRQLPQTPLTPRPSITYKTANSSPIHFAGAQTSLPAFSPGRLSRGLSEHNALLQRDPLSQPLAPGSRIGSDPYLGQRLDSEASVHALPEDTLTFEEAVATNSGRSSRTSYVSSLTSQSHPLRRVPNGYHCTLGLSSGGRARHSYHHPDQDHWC

Regarding `CC1(S(=O)(=O)c2cccc(C(F)(F)F)c2)CCOC(c2cc(C(F)(F)F)nn2C2CS(=O)(=O)C2)C1` (stereo not drawn) [Example 20 cis-EN1, 3-[5-[4-Methyl-4-[[3-(trifluoromethyl)phenyl]sulfonyl]-tetrahydro-pyran-2-yl]-3-(trifluoromethyl)-1H-pyrazol-1-yl]-thietane-1,1-dioxide], the inhibition at 3 µM fell in the range of 75 to 95%.

`COCCCn1nc(C(F)(F)F)cc1C1CC(C)(S(=O)(=O)c2cccc(C(F)(F)F)c2)CCO1` (racemic) [Example 10 cis-rac, 1-(3-Methoxypropyl)-5-(4-methyl-4-((3-(trifluoromethyl)phenyl)sulfonyl)tetrahydro-2H-pyran-2-yl)-3-(trifluoromethyl)-1H-pyrazole]: the inhibition at 3 µM is above 95%.

Turning to `CC1(S(=O)(=O)c2cccc(C(F)(F)F)c2)CCOC(c2cc(C(F)(F)F)nn2CCS(C)(=O)=O)C1` (stereo not drawn) [Example 19 cis-EN1, 1-(2-Methylsulfonyl-ethyl)-5-[4-methyl-4-[[3-(trifluoromethyl)phenyl]sulfonyl]-tetrahydro-pyran-2-yl]-3-(trifluoromethyl)-1H-pyrazole], the “Activity Category: %-Inhib (CaV2.2) @3 μM @30 mM KCl” value (3 μM test compound) is on record as “B (“B”: %-Inhibition >75% up to ≤95%)”.

As for `CC1(S(=O)(=O)c2cccc(C(F)(F)F)c2)CCOC(c2cc(C(F)(F)F)nn2CC2(N)CC2)C1` (racemic) [Example 15 cis-rac, [1-[[5-[4-Methyl-4-[[3-(trifluoromethyl)phenyl]sulfonyl]-tetrahydro-pyran-2-yl]-3-(trifluoromethyl)-1H-pyrazol-1-yl]-methyl]-cyclopropyl]-amine], the inhibition at 3 µM is above 95%.

For `CC(C)(CO)n1nc(C(F)(F)F)cc1C1CC(C)(S(=O)(=O)c2cccc(C(F)(F)F)c2)CCO1` (stereo not drawn) [Example 6 cis-EN1, 2-Methyl-2-[5-[4-methyl-4-[[3-(trifluoromethyl)phenyl]sulfonyl]-tetrahydro-pyran-2-yl]-3-(trifluoromethyl)-1H-pyrazol-1-yl]-propan-1-ol], the inhibition at 3 µM fell in the range of 75 to 95%.
